Measured values as given in patent US12227498B2, “Heterocyclic amine derivative and pharmaceutical composition comprising same” (Daewoong Pharmaceutical Co., Ltd., priority 2018, dated 2025).

How the values were obtained:
BTK = target: T1, BTK (Homo sapiens, UniProt Q06187); test: Inhibitory activity against BTK, ADP-Glo + BTK Kinase enzyme system kit (Promega); type: biochemical; conditions: BTK enzyme 1 ng/μl; ATP 10 µM; 15 min preincubation at room temperature; 1 hour at 30° C.; luminescence; duplicate
T1 construct: purchased Promega Corporation
T1 sequence (Q06187 whole entry): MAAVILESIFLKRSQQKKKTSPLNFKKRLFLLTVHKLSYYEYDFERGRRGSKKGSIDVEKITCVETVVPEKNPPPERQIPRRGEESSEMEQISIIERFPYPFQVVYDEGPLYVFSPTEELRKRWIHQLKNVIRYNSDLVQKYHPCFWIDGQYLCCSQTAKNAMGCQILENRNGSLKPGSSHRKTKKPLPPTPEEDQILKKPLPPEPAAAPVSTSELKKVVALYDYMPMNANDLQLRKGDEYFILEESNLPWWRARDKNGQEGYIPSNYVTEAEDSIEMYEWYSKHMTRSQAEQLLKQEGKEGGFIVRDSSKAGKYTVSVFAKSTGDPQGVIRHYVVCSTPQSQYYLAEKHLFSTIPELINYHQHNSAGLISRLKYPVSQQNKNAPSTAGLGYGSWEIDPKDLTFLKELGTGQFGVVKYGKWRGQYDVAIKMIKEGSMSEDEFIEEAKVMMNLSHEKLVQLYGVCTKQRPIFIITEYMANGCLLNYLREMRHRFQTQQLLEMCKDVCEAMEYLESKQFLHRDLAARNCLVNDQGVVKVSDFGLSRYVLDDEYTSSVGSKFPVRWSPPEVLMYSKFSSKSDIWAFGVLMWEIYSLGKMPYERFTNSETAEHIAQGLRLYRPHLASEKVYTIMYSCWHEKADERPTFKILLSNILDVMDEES
Method: (§1) Inhibitory activities against BTK and ITK were measured for the compounds prepared in the above Examples as follows.
The inhibitory activities against BTK were evaluated using ‘ADP-Glo™+BTK Kinase enzyme system’ kit (Promega Corporation). […] 5 μl of substrate and 5 μl of ATP prepared so as to have a final concentration of 10 µM were added to the plate on which reactions were completed, and then allowed to react at 30° C. for 1 hour. All wells of the plate were treated with 25 μl of ADP-Glo™ reagent and allowed to react at 30° C. for 40 minutes. After that, all wells were treated with 50 μl of kinase detection buffer, and then reacted at 30° C. for 30 minutes under light shielding conditions. For the plate on which all reactions were completed, luminescence was measured and the results were calculated. Evaluation was carried out in duplicate, and negative control and positive control were calculated depending on whether or not the enzyme was added without treatment of the compound. The IC50 was calculated based on the calculated values.

ITK = target: T2, ITK (Homo sapiens, UniProt Q08881); test: Inhibitory activity against ITK, ADP-Glo + ITK Kinase enzyme system kit (Promega); type: biochemical; conditions: ITK enzyme 0.4 ng/μl; 15 min preincubation at room temperature; 1 hour at 30° C.; luminescence; duplicate
T2 construct: purchased Promega Corporation
T2 sequence (Q08881 1-620): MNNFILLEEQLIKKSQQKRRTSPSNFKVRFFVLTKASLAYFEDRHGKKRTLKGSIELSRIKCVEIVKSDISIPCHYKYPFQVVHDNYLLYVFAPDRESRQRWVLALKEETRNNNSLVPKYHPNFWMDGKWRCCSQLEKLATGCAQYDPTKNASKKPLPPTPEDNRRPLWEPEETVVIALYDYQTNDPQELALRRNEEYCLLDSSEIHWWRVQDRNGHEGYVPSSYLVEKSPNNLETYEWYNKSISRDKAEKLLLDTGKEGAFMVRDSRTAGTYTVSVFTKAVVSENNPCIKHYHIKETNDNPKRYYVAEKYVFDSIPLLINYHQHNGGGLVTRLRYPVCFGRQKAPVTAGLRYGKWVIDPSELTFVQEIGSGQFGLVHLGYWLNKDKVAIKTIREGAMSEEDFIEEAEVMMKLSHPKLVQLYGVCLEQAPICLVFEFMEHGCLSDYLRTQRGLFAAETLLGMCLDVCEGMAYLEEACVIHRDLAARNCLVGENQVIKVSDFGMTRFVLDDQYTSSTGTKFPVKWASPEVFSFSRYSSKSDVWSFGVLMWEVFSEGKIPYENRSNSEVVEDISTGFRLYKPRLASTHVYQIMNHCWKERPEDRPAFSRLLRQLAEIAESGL
Method: as §1
The inhibitory activity against ITK was evaluated using ‘ADP-Glo™+ITK Kinase enzyme system’ kit (Promega Corporation). […] To the plate on which reactions were completed, 5 μl of substrate and 5 μl of ATP prepared so as to have a final concentration of […] were added and then allowed to react at 30° C. for 1 hour. All wells of the plate were treated with 25 μl of ADP-Glo™ reagent and then allowed to react at 30° C. for 40 minutes. After that, all wells were treated with 50 μl of kinase detection buffer, and then allowed to react at 30° C. for 30 minutes under light shielding conditions. For the plate on which all reactions were completed, luminescence was measured and the results were calculated. Evaluation was carried out in duplicate, and negative control and positive control were calculated depending on whether or not the enzyme was added without treatment of the compound. The IC50 was calculated based on the calculated values.

IC50 (BTK) [nM] | IC50 (ITK) [nM] | Compound
1.8 | 3.9 | C=CC(=O)N1CCC[C@H](Nc2cc(OC3CCN(C)CC3)cc(Nc3ncc(C)s3)n2)C1 [Example 33, (S)-1-(3-((4-((1-methylpiperidin-4-yl)oxy)-6-((5-methylthiazol-2-yl)amino)pyridin-2-yl)amino)piperidin-1-yl) prop-2-en-1-one]
2.1 | 13.4 | C=CC(=O)N1CCC[C@H](Nc2cc(C)cc(Nc3ncc(C)s3)n2)C1 [Example 35, (S)-1-(3-((4-methyl-6-((5-methylthiazol-2-yl)amino)pyridin-2-yl)amino)piperidin-1-yl) prop-2-en-1-one]
3.2 | 1.9 | C=CC(=O)N1CCC[C@H](Nc2cc(Cc3ccccn3)cc(Nc3ncc(C)s3)n2)C1 [Example 37, (S)-1-(3-((6-((5-methylthiazol-2-yl)amino)-4-(pyridin-2-ylmethyl)pyridin-2-yl)amino)piperidin-1-yl) prop-2-en-1-one]
7.7 | 42.8 | C=CC(=O)N1CCC[C@H](Nc2cc(CN3CCOCC3)cc(Nc3ccccn3)n2)C1 [Example 53, (S)-1-(3-(4-(morpholinomethyl)-6-(pyridin-2-ylamino)pyridin-2-ylamino)piperidin-1-yl) prop-2-en-1-one]
72.5 | 71.7 | C=CC(=O)N1CCC(Nc2cc(CN3CCOCC3)nc(Nc3ncc(C)s3)n2)C1 (stereo not drawn) [Example 8, 1-(3-((2-((5-methylthiazol-2-yl)amino)-6-(morpholinomethyl)pyrimidin-4-yl)amino)pyrrolidin-1-yl) prop-2-en-1-one]
1.3 | 1.9 | C=CC(=O)N1CCC[C@H](Nc2nc(CN3CCOCC3)cc(Nc3ncc(C)s3)n2)C1 [Example 21, (S)-1-(3-((4-((5-methylthiazol-2-yl)amino)-6-(morpholinomethyl)pyrimidin-2-yl)amino)piperidin-1-yl) prop-2-en-1-one]
4.7 | 4.1 | C=CC(=O)N1CCCC(Nc2cc(CN3CCOCC3)cc(Nc3ncc(C)s3)n2)C1 (stereo not drawn) [Example 1, 1-(3-((6-((5-methylthiazol-2-yl)amino)-4-(morpholinomethyl)pyridin-2-yl)amino)piperidin-1-yl) prop-2-en-1-one]
> 1000 | > 1000 | C/C=C/C(=O)N1CCC(Nc2cc(CN3CCOCC3)nc(Nc3ncc(C)s3)n2)C1 (stereo not drawn) [Example 9, (E)-1-(3-((2-((5-methylthiazol-2-yl)amino)-6-(morpholinomethyl)pyrimidin-4-yl)amino)pyrrolidin-1-yl) but-2-en-1-one]
2 | 2 | C=CC(=O)N1CCCC(Oc2cc(CN3CCOCC3)cc(Nc3ncc(C)s3)n2)C1 (stereo not drawn) [Example 12, 1-(3-((6-((5-methylthiazol-2-yl)amino)-4-(morpholinomethyl)pyridin-2-yl)oxy)piperidin-1-yl) prop-2-en-1-one]
> 200 | > 200 | CC#CC(=O)N1CCC[C@@H](Nc2cc(CN3CCOCC3)cc(Nc3ncc(C)s3)n2)C1 [Example 13, (R)-1-(3-((6-((5-methylthiazol-2-yl)amino)-4-(morpholinomethyl)pyridin-2-yl)amino)piperidin-1-yl) but-2-yn-1-one]
152 | > 200 | C=CC(=O)N1CCC[C@H](Nc2cc(CN3CCOCC3)cc(Nc3ncc(C)s3)n2)C1 [Example 5, (S)-1-(3-((6-((5-methylthiazol-2-yl)amino)-4-(morpholinomethyl)pyridin-2-yl)amino)piperidin-1-yl) prop-2-en-1-one]
~1000 | ~1000 | C=CC(=O)N1CCC[C@@H](Nc2nc(CN3CCOCC3)cc(Nc3ncc(C)s3)n2)C1 [Example 25, (R)-1-(3-((4-((5-methylthiazol-2-yl)amino)-6-(morpholinomethyl)pyrimidin-2-yl)amino)piperidin-1-yl) prop-2-en-1-one]
1.1 | 1.1 | C=CC(=O)N1CCC[C@H](Nc2cc(CN3CCN(C(C)=O)CC3)cc(Nc3ncc(C)s3)n2)C1 [Example 20]
2.5 | 2.2 | C=CC(=O)N1CCC[C@H](Nc2cc(CN3CCN(CC)CC3)cc(Nc3ncc(C)s3)n2)C1 [Example 42, (S)-1-(3-((4-((4-ethylpiperazin-1-yl)methyl)-6-((5-methylthiazol-2-yl)amino)pyridin-2-yl)amino)piperidin-1-yl) prop-2-en-1-one]
~1000 | ~1000 | C=CC(=O)N1CCC[C@H](Nc2cc(CN3CCOCC3)cc(Nc3cc(Cl)[nH]n3)n2)C1 [Example 50, (S)-1-(3-(6-(5-chloro-1H-pyrazol-3-ylamino)-4-(morpholinomethyl)pyridin-2-ylamino)piperidin-1-yl) prop-2-en-1-one]
8.5 | 7.8 | C=CC(=O)N1CCC(Oc2cc(CN3CCOCC3)cc(Nc3ncc(C)s3)n2)CC1 [Example 11, 1-(4-((6-((5-methylthiazol-2-yl)amino)-4-(morpholinomethyl)pyridin-2-yl)oxy)piperidin-1-yl) prop-2-en-1-one]
27.7 | 36 | C=CC(=O)N1CC[C@@H](Nc2cc(CN3CCOCC3)cc(Nc3ncc(C)s3)n2)C1 [Example 6, (R)-1-(3-((6-((5-methylthiazol-2-yl)amino)-4-(morpholinomethyl)pyridin-2-yl)amino)pyrrolidin-1-yl) prop-2-en-1-one]
~1000 | ~1000 | C=CC(=O)N1CCC[C@H](Nc2cc(CN3CCOCC3)cc(Nc3ncccn3)n2)C1 [Example 54, (S)-1-(3-(4-(morpholinomethyl)-6-(pyrimidin-2-ylamino)pyridin-2-ylamino)piperidin-1-yl) prop-2-en-1-one]
10.3 | 10.8 | C#CC(=O)N1CCC[C@H](Nc2cc(OC3CCN(C)CC3)cc(Nc3ncc(C)s3)n2)C1 [Example 40, (S)-1-(3-((4-((1-methylpiperidin-4-yl)oxy)-6-((5-methylthiazol-2-yl)amino)pyridin-2-yl)amino)piperidin-1-yl) prop-2-yn-1-one]
3.9 | 1.8 | C=CC(=O)N1CCC[C@H](Nc2cc(Cc3cccnc3)cc(Nc3ncc(C)s3)n2)C1 [Example 36, (S)-1-(3-((6-((5-methylthiazol-2-yl)amino)-4-(pyridin-3-ylmethyl)pyridin-2-yl)amino)piperidin-1-yl) prop-2-en-1-one]
3.3 | 49.1 | CC#CC(=O)N1CCC(Nc2cc(CN3CCOCC3)cc(Nc3ncc(C)s3)n2)C1 (stereo not drawn) [Example 14, 1-(3-((6-((5-methylthiazol-2-yl)amino)-4-(morpholinomethyl)pyridin-2-yl)amino)pyrrolidin-1-yl) but-2-yn-1-one]
9.5 | 128 | CC#CC(=O)N1CCC[C@H](Nc2cc(OC3CCN(C)CC3)cc(Nc3ncc(C)s3)n2)C1 [Example 41, (S)-1-(3-((4-((1-methylpiperidin-4-yl)oxy)-6-((5-methylthiazol-2-yl)amino)pyridin-2-yl)amino)piperidin-1-yl) but-2-yn-1-one]
~1000 | ~1000 | C=CC(=O)N1CCC[C@H](Nc2cc(CN3CCOCC3)cc(Nc3nccs3)n2)C1 [Example 51, (S)-1-(3-(4-(morpholinomethyl)-6-(thiazol-2-ylamino)pyridin-2-ylamino)piperidin-1-yl) prop-2-en-1-one]
36.6 | – | CC#CC(=O)N1CCC[C@H](Nc2nc(CN3CCOCC3)cc(Nc3ncc(C)s3)n2)C1 [Example 23, (S)-1-(3-((4-((5-methylthiazol-2-yl)amino)-6-(morpholinomethyl)pyrimidin-2-yl)amino)piperidin-1-yl) but-2-yn-1-one]
875 | – | CC#CC(=O)N1CCC(Nc2cc(CN3CCOCC3)cc(Nc3ncc(C)s3)n2)CC1 [Example 19, 1-(4-((6-((5-methylthiazol-2-yl)amino)-4-(morpholinomethyl)pyridin-2-yl)amino)piperidin-1-yl) but-2-yn-1-one]
